# From patent US20130303509A1, “NAMPT INHIBITORS” (AbbVie Inc., priority 2012, published 2013)
# Test system: PC3 cells
# Assay: NAMPT Cell Proliferation Assay
# Assay type: cell-based
# Details: Homo sapiens, PC-3, 120 h, 5 days incubation, cell viability by Cell Titer Glo
# Procedure, shortened: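 Seeded at 500 cells/well in RPMI with 10% heat-inactivated FBS and left to attach overnight at 37° C, 5% CO2. Compounds were added as 10-fold dilutions […] for 5 days, then viability was read by CellTiter-Glo. IC50s came from sigmoidal fits of percent inhibition.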
row,SMILES,IC50 [nM]
1,"O=C(Nc1ccc(OC2CCN(C(=O)Cc3ccc(F)cc3F)CC2)cc1)C1CN(c2cccnn2)C1 [Example 236, N-[4-({1-[(2,4-difluorophenyl)acetyl]piperidin-4-yl}oxy)phenyl]-1-(pyridazin-3-yl)azetidine-3-carboxamide]",9.25
2,"O=C(Nc1ccc(S(=O)(=O)C2CCN(C(=O)C3CC3)CC2)cc1)C1CN(c2cccnn2)C1 [Example 592, N-(4-{[1-(cyclopropylcarbonyl)piperidin-4-yl]sulfonyl}phenyl)-1-(pyridazin-3-yl)azetidine-3-carboxamide]",620
3,"O=C(Nc1ccc(O[C@@H]2CCN(C(=O)c3cccc(F)c3)C2)cc1)C1CN(c2cccnn2)C1 [Example 518, N-(4-{[(3R)-1-(3-fluorobenzoyl)pyrrolidin-3-yl]oxy}phenyl)-1-(pyridazin-3-yl)azetidine-3-carboxamide]",0.87
4,"O=C(Nc1ccc(C2CCN(CC3CCCC3)CC2)cc1)C1CN(c2cccnc2)C1 [Example 88, N-{4-[1-(cyclopentylmethyl)piperidin-4-yl]phenyl}-1-(pyridin-3-yl)azetidine-3-carboxamide]",66.3
5,"Cc1ncccc1N1CC(C(=O)Nc2ccc(C3CCN(C(=O)C4(C)CCCCC4)CC3)cc2)C1 [Example 177, N-(4-{1-[(1-methylcyclohexyl)carbonyl]piperidin-4-yl}phenyl)-1-(2-methylpyridin-3-yl)azetidine-3-carboxamide]",107
6,"O=C(Nc1ccc(OC2CCN(C(=O)c3nccs3)CC2)cc1)C1CN(c2cccnn2)C1 [Example 213, 1-(pyridazin-3-yl)-N-(4-{[1-(1,3-thiazol-2-ylcarbonyl)piperidin-4-yl]oxy}phenyl)azetidine-3-carboxamide]",6.88
7,"O=C(Nc1ccc(OC2CCN(C(=O)CC3CCOCC3)CC2)cc1)C1CN(c2cnccc2F)C1 [Example 6, 1-(4-fluoropyridin-3-yl)-N-(4-{[1-(tetrahydro-2H-pyran-4-ylacetyl)piperidin-4-yl]oxy}phenyl)azetidine-3-carboxamide]",67.7
8,"CC(C)(C)OC(=O)N1CCC(c2ccc(C(=O)NC3CN(c4cccnn4)C3)cc2)CC1 [Example 314, tert-butyl 4-(4-{[1-(pyridazin-3-yl)azetidin-3-yl]carbamoyl}phenyl)piperidine-1-carboxylate]",621
9,"CC1(Cn2cc(-c3ccc(NC(=O)[C@H]4CCN(c5cccnn5)C4)cc3)cn2)CCOCC1 [Example 756, (3S)—N-(4-{1-[(4-methyltetrahydro-2H-pyran-4-yl)methyl]-1H-pyrazol-4-yl}phenyl)-1-(pyridazin-3-yl)pyrrolidine-3-carboxamide]",9.08
10,"O=C(Nc1ccc(OC2CCN(C(=O)C(F)(F)c3ccccc3)CC2)cc1)C1CN(c2ccnnc2)C1 [Example 269, N-[4-({1-[difluoro(phenyl)acetyl]piperidin-4-yl}oxy)phenyl]-1-(pyridazin-4-yl)azetidine-3-carboxamide]",60.4
11,"CC(C)(O)C(=O)N1CCC(Oc2ccc(NC(=O)[C@H]3CCN(c4cccnc4)C3)cc2)CC1 [Example 17, (3S)-N-(4-{[1-(2-hydroxy-2-methylpropanoyl)piperidin-4-yl]oxy}phenyl)-1-(pyridin-3-yl)pyrrolidine-3-carboxamide]",93.7
12,"CCC(CC)C(=O)N1CCC(c2ccc(NC(=O)C3CN(c4cccnn4)C3)cc2)CC1 [Example 328, N-{4-[1-(2-ethylbutanoyl)piperidin-4-yl]phenyl}-1-(pyridazin-3-yl)azetidine-3-carboxamide]",1.59
13,"O=C(Nc1ccc(OC2CN(C(=O)C3CCOC3)C2)cc1)C1CN(c2ccnnc2)C1 (centres unmarked) [Example 208, 1-(pyridazin-4-yl)-N-(4-{[1-(tetrahydrofuran-3-ylcarbonyl)azetidin-3-yl]oxy}phenyl)azetidine-3-carboxamide]",593
14,"O=C(Nc1ccc(C2CCN(C(=O)CC3C[C@@H]4CC[C@H]3C4)CC2)cc1)C1CN(c2cccnc2)C1 (stereo partly drawn) [Example 100, N-(4-{1-[(1S,4R)-bicyclo[2.2.1]hept-2-ylacetyl]piperidin-4-yl}phenyl)-1-(pyridin-3-yl)azetidine-3-carboxamide]",6.13
15,"CC(=O)N1CCC(Oc2ccc(NC(=O)C3CN(c4cccnc4)C3)cc2)CC1 [Example 56, N-{4-[(1-acetylpiperidin-4-yl)oxy]phenyl}-1-(pyridin-3-yl)azetidine-3-carboxamide]",9.27
16,"Cc1ncccc1N1CC(C(=O)Nc2ccc(C3CCN(C(=O)c4cc(Cl)cc(Cl)c4)CC3)cc2)C1 [Example 154, N-{4-[1-(3,5-dichlorobenzoyl)piperidin-4-yl]phenyl}-1-(2-methylpyridin-3-yl)azetidine-3-carboxamide]",803
17,"O=C(Nc1ccc(C2CCN(C(=O)c3ccc(F)cc3F)CC2)cc1F)C1CN(c2cccnn2)C1 [Example 833, N-{4-[1-(2,4-difluorobenzoyl)piperidin-4-yl]-2-fluorophenyl}-1-(pyridazin-3-yl)azetidine-3-carboxamide]",6.67
18,"CC(C)C(=O)N1CCC(c2ccc(NC(=O)C3CN(c4cccnc4)C3)cc2)CC1 [Example 30, N-{4-[1-(2-methylpropanoyl)piperidin-4-yl]phenyl}-1-(pyridin-3-yl)azetidine-3-carboxamide]",1.97
19,"O=C(Nc1ccc(OC2CCN(C(=O)CC3CCOCC3)CC2)cc1)C1CN(c2cccnc2)C1 [Example 1, 1-(pyridin-3-yl)-N-(4-{[1-(tetrahydro-2H-pyran-4-ylacetyl)piperidin-4-yl]oxy}phenyl)azetidine-3-carboxamide]",6.56
20,"Cc1ncccc1N1CC(C(=O)Nc2ccc(C3CCN(C(=O)CCN4CCCCC4)CC3)cc2)C1 [Example 190, 1-(2-methylpyridin-3-yl)-N-(4-{1-[3-(piperidin-1-yl)propanoyl]piperidin-4-yl}phenyl)azetidine-3-carboxamide]",694
21,"CC(C)CC(=O)N1CCC(Oc2ccc(NC(=O)C3CN(c4cccnn4)C3)cc2)CC1 [Example 225, N-(4-{[1-(3-methylbutanoyl)piperidin-4-yl]oxy}phenyl)-1-(pyridazin-3-yl)azetidine-3-carboxamide]",8.76
22,"Cn1cccc1C(=O)N1CCC(Oc2ccc(NC(=O)C3CN(c4cccnc4)C3)cc2)CC1 [Example 64, N-[4-({1-[(1-methyl-1H-pyrrol-2-yl)carbonyl]piperidin-4-yl}oxy)phenyl]-1-(pyridin-3-yl)azetidine-3-carboxamide]",6.32

# Second part, the compound after the results:
row,IC50 [nM],SMILES
1,7.51,"O=C(Nc1ccc(C2CCN(C(=O)c3cccc(C(F)(F)F)c3)CC2)cc1)C1CN(c2cccnn2)C1 [Example 354, 1-(pyridazin-3-yl)-N-(4-{1-[3-(trifluoromethyl)benzoyl]piperidin-4-yl}phenyl)azetidine-3-carboxamide]"
2,0.475,"O=C(Nc1ccc(C2CCN(C(=O)c3ccsc3)CC2)cc1)[C@H]1CCN(c2cccnn2)C1 [Example 655, (3S)-1-(pyridazin-3-yl)-N-{4-[1-(thiophen-3-ylcarbonyl)piperidin-4-yl]phenyl}pyrrolidine-3-carboxamide]"
3,5.3,"O=C(Nc1ccc(C2CCN(C(=O)CC3CCCCC3)CC2)cc1)[C@H]1CCN(c2cccnn2)C1 [Example 704, (3S)-N-{4-[1-(cyclohexylacetyl)piperidin-4-yl]phenyl}-1-(pyridazin-3-yl)pyrrolidine-3-carboxamide]"
4,69.3,"O=C(Nc1ccc(C2CCN(C(=O)Cc3ccc(F)cc3)CC2)cc1)[C@H]1CCN(c2cccnn2)C1 [Example 675, (3S)-N-(4-{1-[(4-fluorophenyl)acetyl]piperidin-4-yl}phenyl)-1-(pyridazin-3-yl)pyrrolidine-3-carboxamide]"
5,8.44,"O=C(Nc1ccc(C2CCN(C(=O)Cc3cccc(Cl)c3)CC2)cc1)[C@H]1CCN(c2cccnn2)C1 [Example 657, (3S)-N-(4-{1-[(3-chlorophenyl)acetyl]piperidin-4-yl}phenyl)-1-(pyridazin-3-yl)pyrrolidine-3-carboxamide]"
6,7.59,"O=C(Nc1ccc(C2CN(C(=O)c3ccccc3)C2)cc1)[C@H]1CCN(c2cccnn2)C1 [Example 788, (3S)-N-[4-(1-benzoylazetidin-3-yl)phenyl]-1-(pyridazin-3-yl)pyrrolidine-3-carboxamide]"
7,6.14,"O=C(Nc1ccc(C2CCN(C(=O)Cc3ccc(F)cc3F)CC2)cc1)C1CN(c2ccnnc2)C1 [Example 536, N-(4-{1-[(2,4-difluorophenyl)acetyl]piperidin-4-yl}phenyl)-1-(pyridazin-4-yl)azetidine-3-carboxamide]"
8,2.35,"Cc1ccc(C(=O)N2CCC(c3ccc(NC(=O)C4CN(c5cccnn5)C4)cc3)CC2)cc1C [Example 360, N-{4-[1-(3,4-dimethylbenzoyl)piperidin-4-yl]phenyl}-1-(pyridazin-3-yl)azetidine-3-carboxamide]"
9,13.5,"CC(C)c1ccc(C(=O)N2CCC(c3ccc(NC(=O)[C@H]4CCN(c5cccnn5)C4)cc3)CC2)cc1 [Example 729, (3S)-N-(4-{1-[4-(propan-2-yl)benzoyl]piperidin-4-yl}phenyl)-1-(pyridazin-3-yl)pyrrolidine-3-carboxamide]"
10,3.72,"O=C(Nc1ccc(C2CCN(C(=O)Cc3ccc4ccccc4c3)CC2)cc1)C1CN(c2cccnn2)C1 [Example 421, N-{4-[1-(naphthalen-2-ylacetyl)piperidin-4-yl]phenyl}-1-(pyridazin-3-yl)azetidine-3-carboxamide]"
11,5220,"O=C(Nc1ccc(C2CCN(C(=O)c3ccccc3)CC2)cc1)C1CCN(c2cccnn2)CC1 [Example 626, N-[4-(1-benzoylpiperidin-4-yl)phenyl]-1-(pyridazin-3-yl)piperidine-4-carboxamide]"
12,0.5,"O=C(Nc1ccc(C2CCN(C(=O)c3cccs3)CC2)cc1)[C@H]1CCN(c2cccnn2)C1 [Example 731, (3S)-1-(pyridazin-3-yl)-N-{4-[1-(thiophen-2-ylcarbonyl)piperidin-4-yl]phenyl}pyrrolidine-3-carboxamide]"
13,76.6,"O=C(Nc1ccc(C2CCN(C(=O)c3cc(Cl)cc(Cl)c3)CC2)cc1)[C@H]1CCN(c2cccnn2)C1 [Example 684, (3S)-N-{4-[1-(3,5-dichlorobenzoyl)piperidin-4-yl]phenyl}-1-(pyridazin-3-yl)pyrrolidine-3-carboxamide]"
